Results: patent publication US8071645B2, “Systems and methods for treating human inflammatory and proliferative diseases and wounds, with fatty acid metabolism inhibitors and/or glycolytic inhibitors” (The Regents of the University of Colorado, priority 2003, dated 2011)

Experiments:
Format in all cases: cell-based
B16F1 melanoma cells = assay: mitochondrial membrane potential (Mitotracker Red) of B16F1 melanoma cells; settings: 48 hours, FIG. 20
Method: Metabolic Activity Assay. Cells were prepared as previously described. The specific metabolic dye was added and mixed into the cell suspension. This plate was then placed into the 37° incubator for a 20-minute incubation. After incubation, the cells were centrifuged at 300×g for 5 minutes, and the supernatant was removed. The cells were then washed once with PBS/2.5% FBS and transferred into flow cytometric tubes containing 500 μL of PBS/2.5% FBS for analysis
MitoTracker Red CM-H2XROS (Molecular Probes). One vial of MitoTracker Red provides 10 tests and contains 50 μg. This is unstable and can't be stored. Therefore, when each vial was opened, 43 μL of Dimethysulfoxide (DMSO) were added. […]
Geometric Mean Fluorescence. […] Once the stained sample was plotted against the control (isotype or unstained), geometric mean fluorescence values were obtained for both histogram peaks. The stained control sample value was subtracted from sample to identify the actual fluorescence of the stained sample over that of the control.
B16F1 melanoma cells of Example 12 were untreated or treated with etomoxir at the indicated concentrations for 48 hours. Cells were harvested, stained with Mitotracker Red (Molecular Probes) as described in Materials and Methods, and analyzed by flow cytometry. The value of Mitotracker Red was then calculated as described in Materials and Methods. […]

[1] = system: cell-surface Fas on drug resistant L1210/DDP cells; assay: cell-surface Fas expression on L1210/DDP cells by flow cytometry
Method: (§1) Flow Cytometry. Cells were harvested, counted, and resuspended at 10^6 cells/100 μl of PBS containing 2.5% fetal calf serum in preparation for flow cytometric analysis. Cells were stained for intracellular H202 using 6-carboxy-2′,7′-dichlorodihydrofluorescein diacetate (DCF-DA, Molecular Probes, Eugene, Oreg.). Briefly, cells were incubated at 37° with 1 mM DCF-DA for 20 minutes, washed twice in PBS containing 2.5% fetal calf serum and analyzed flow cytometrically. Mitochondrial membrane potential was assessed using Mitotracker Red (CM-H2XROS, Molecular Probes, Eugene, Oreg.). […] The cells were incubated at 37° for 20 minutes, washed twice in PBS containing 2.5% fetal calf serum and analyzed flow cytometrically. Data were acquired on a Coulter Elite Epics or Excel flow cytometer (Coulter, Hialeah, Fla.) and analyzed with CellQuest software, (Becton Dickinson, San Jose, Calif.). […] Each sample population was classified for cell size (forward scatter) and complexity (side scatter), gated on a population of interest and evaluated using 5,000 cells. […]
(§2) Drug sensitive L1210 cells and drug resistant L1210/DDP cells were cultured with etomoxir for 24 hours (Tx indicates treatment with etomoxir). The level of cell-surface Fas was determined using fluorochrome conjugated anti-Fas antibodies and flow cytometry. The Fas levels are measured relative to a control for staining artifacts. […]

[2] = system: human leukemia RU937 cells; assay: mitochondrial membrane potential (MitoTracker) of RU937 cells; settings: 24 hours of incubation, FIG. 13
Method: (§3) Flow Cytometry. Cells were harvested, counted, and resuspended at 10^6 cells/100 μl of PBS containing 2.5% fetal calf serum in preparation for flow cytometric analysis. Cells were stained for intracellular H202 using 6-carboxy-2′,7′-dichlorodihydrofluorescein diacetate (DCF-DA, Molecular Probes, Eugene, Oreg.). Briefly, cells were incubated at 37° with 1 mM DCF-DA for 20 minutes, washed twice in PBS containing 2.5% fetal calf serum and analyzed flow cytometrically. Mitochondrial membrane potential was assessed using Mitotracker Red (CM-H2XROS, Molecular Probes, Eugene, Oreg.). The cells were resuspended in PBS containing 2.5% fetal calf serum containing a final concentration of 0.5 micromolar Mitotracker dye. The cells were incubated at 37° for 20 minutes, washed twice in PBS containing 2.5% fetal calf serum and analyzed flow cytometrically. Data were acquired on a Coulter Elite Epics or Excel flow cytometer (Coulter, Hialeah, Fla.) and analyzed with CellQuest software, (Becton Dickinson, San Jose, Calif.). […] Each sample population was classified for cell size (forward scatter) and complexity (side scatter), gated on a population of interest and evaluated using 5,000 cells. […]
The effects of etomoxir on human leukemia RU937 cells was determined. […]

[3] = system: cell surface UCP2 on A-204 human rhabdomyosarcoma cells; assay: cell surface UCP2 expression on A-204 cells by flow cytometry; settings: 24, 48, & 72 hours, FIG. 26
Method: Cell Surface Staining. Non-permeabilized cells were stained with antibodies to the cell surface receptors Fas (CD95) (Pharmingen) or with antibodies to uncoupling proteins (anti-UCP2 antibody) (Alpha Diagnostic International). Antibodies for both the isotype control and actual stain were added to the cell suspension, mixed, and then placed on ice for and incubation of 25 minutes in the dark. Subsequently the cells were centrifuged at 300×g for 5 minutes and the supernatant removed. The cells were washed one time with 100 μL of PBS/2.5% FBS and then transferred into flow cytometric tubes containing 500 μL of PBS/2.5% FBS for analysis.
A204 human rhabdomyosarcoma cells were cultured at a concentration of 0.5 to 1 million cells per ml. Cells were untreated or treated with etomoxir at concentrations indicated in FIG. 24 for 24, 48, & 72 hours. Cells were harvested and analyzed by flow cytometry. Dot plots are shown in FIG. 24 as functions of live versus dead cells. […] Five thousand cells were assessed for forward scatter (FS), as a function of cell size, versus side scatter (SS), as a function of cellular granularity. […]
Cells were untreated or treated with etomoxir at the concentration indicated in FIG. 26 at the indicated concentration for 24, 48, & 72 hours. Cells were harvested, stained with fluorochrome conjugated with anti-UCP2 antibody and analyzed by flow cytometry.

[4] = system: cell-surface Fas on drug sensitive L1210 cells; assay: cell-surface Fas expression on L1210 cells by flow cytometry
Method: as §1, §2

[5] = system: human leukemia HL60 cells; assay: DCFDA staining of HL60 cells; settings: 24 hours of incubation, FIG. 14
Method: as §3
The effects of etomoxir on human leukemia HL60 cells was determined. […]

Structure (SMILES): CCOC(=O)C1(CCCCCCOc2ccc(Cl)cc2)CO1 (centres unmarked) [etomoxir, 2-(6-(4-chlorophenoxy)-hexyl)-oxirane-2-carboxylic acid ethyl ester]
- mitochondrial membrane potential as measured by Mitotracker Red (B16F1 melanoma cells): increase
- cell surface Fas ([1]; L1210/DDP, cultured with etomoxir for 24 hours, FIG. 7): significant increases
- cell surface Fas on methotrexate-treated cells ([1]; L1210 DDP, etomoxir with methotrexate, FIG. 8): promotes increases
- levels of mitochondrial membrane potential (MitoTracker) [2]: increased
- cell surface UCP2 expression in the live cells [3]: time dependent “fold” increases
- cell surface Fas ([4]; cultured with etomoxir for 24 hours, FIG. 7): significant increases
- methotrexate-induced increases in Fas ([4]; etomoxir with methotrexate, FIG. 8): increases
- reactive oxygen intermediates (DCFDA staining) [5]: increases
